From patent publication US6191290A, “Taxane derivatives for targeted therapy of cancer” (UAB Research Foundation, priority 2000, dated 2001)

Experiments:
[1] = Solubility in aqueous and organic solvents; type: physicochemical; conditions: unconjugated peptide
Text: Prior to the biological evaluation of this compound, two key issues needed to be addressed: The overall water solubility and the cell surface receptor binding ability of the conjugate.

[2] = test system: NCI-H1299 cells; test: Cytotoxicity assay at day 4 against NCI-H1299 cells, conjugate versus underivatized paclitaxel
Procedure: To evaluate the cytotoxic effects of the paclitaxel conjugate, experiments were designed to compare these effects with the underivatized, unconjugated paclitaxel.
To evaluate the cytotoxic activity of the conjugate relative to the intact, underivatized paclitaxel on the NCI-H1299 cells, 25 nM and 50 nM samples of paclitaxel and 10 nM and 30 nM solutions of the conjugate were incubated with the cells and the survival was assessed on day 4.

[3] = test system: G18 human astrocytoma cells; conditions: cited from earlier work
[4] = test system: Burkitts lymphoma xenografts; conditions: nude mice bearing Burkitts lymphoma xenografts; cited from earlier work
[5] = clinical trials; cited from earlier work
[6] = Homo sapiens, NCI-H1299, 96 h, read-out: cytotoxicity (cell destruction)
[7] = Homo sapiens, NCI-H1299, 96 h, read-out: growth inhibition / cell destruction

SMILES	solubility [1]	cytotoxicity at 0.01 µM [2, 6] [%]	cytotoxicity at 0.025 µM [2, 6] [%]	inhibition at 0.025 µM [2, 7] [%]	inhibition at 0.05 µM [2, 7] [%]	cytotoxicity (cell destruction) ([2]; human, nci-h1299 cells, 96 h, 0.01 µM) [%]	radiosensitizing effect [3]	radiosensitizing effect [4]	reported side effects [5]
CC(C)C[C@H](NC(=O)[C@H](Cc1cnc[nH]1)NC(=O)CNC(=O)[C@@H](NC(=O)[C@H](C)NC(=O)[C@H](Cc1c[nH]c2ccccc12)NC(=O)[C@@H](N)CCC(N)=O)C(C)C)C(N)=O [BBN[7-13]]	soluble only in DMF and alcohols								
CC(=O)O[C@H]1C(=O)[C@@]2(C)[C@H]([C@H](OC(=O)c3ccccc3)[C@]3(O)C[C@H](OC(=O)[C@H](O)[C@@H](NC(=O)c4ccccc4)c4ccccc4)C(C)=C1C3(C)C)[C@]1(OC(C)=O)CO[C@@H]1C[C@@H]2O [paclitaxel]		0	20	23	51	0	radiosensitizing effect	radiosensitizing effect	neutropenia, mucositis, cardiac and neurological toxicities in addition to hypersensitivity
